Results taken from patent US20100104625A1, “BIODEGRADABLE COMPOSITIONS AND MATERIALS” (CORNELL UNIVERSITY, priority 2007, published 2010).

Test: Sessile contact angle of water on lipid pellet surface
Format: physicochemical
Settings: pellets fabricated from each lipid
Experimental: Particle characterization. Particle morphology and size were studied at low voltage (5 kV) using scanning electron microscopy imaging (LEICA 440) after coating with palladium. Surface charge measurements on samples suspended in 1:10 diluted PBS were carried out using a Malvern Zetasizer-Nano ZS (Malvern, UK). A PRECO Hydraulic press (Los Angles, Calif.) was used to make lipid pellets with approximate surface area of 25 mm^2. For contact angle measurements, a ramé-hart contact angle goniometer (100-FO) was used to measure the sessile contact angle of water on a lipid pellet surface. Unless otherwise stated, measurements were taken in triplicate.

Which “Hydrophobicity by contact angle of water on lipid surfaces” value does the source give for CCCCCCCC(=O)OCC(=O)COC(=O)CCCCCCC [C8] here?
The value was “least hydrophobic”.
